Data from the supplement of paper PMC13380429.

What was measured:
[1] = system: A549-ACE2 infected with SARS-CoV-2; assay: SARS-CoV-2 infection rate relative to DMSO; higher = more infection; details: 24 h
[2] = system: A549-ACE2; assay: phospholipidosis EC50; higher = less potent phospholipidosis inducer
[3] = system: Vero E6; assay: relative viability EC50 (midpoint between 100% and the lowest measured viability); higher = less toxic; details: 72 h
[4] = system: Calu-3; assay: as above; details: 72 h
[5] = system: HepG2; assay: as above; details: 72 h
[6] = system: Caco-2; assay: cell viability relative to DMSO; higher = less toxic; details: 72 h
[7] = system: U2OS; assay: as above; details: 72 h
[8] = system: Vero E6; assay: as above; details: 72 h
[9] = system: Calu-3; assay: as above; details: 72 h
[10] = system: HepG2; assay: as above; details: 72 h
[11] = system: A549-ACE2 infected with SARS-CoV-2; assay: cell count relative to DMSO; higher = less toxic; details: 24 h
[12] = system: A549-ACE2 infected with SARS-CoV-2; assay: morphology score (similarity to uninfected cells); higher = more like uninfected cells; details: 24 h
[13] = system: A549-ACE2; assay: drug-induced phospholipidosis relative to tamoxifen; higher = more phospholipidosis
[14] = system: Caco-2; assay: drug sensitivity score (DSS) for viability; higher = more toxic; extreme values may be limits of the assay; details: 72 h
[15] = system: U2OS; assay: as above; details: 72 h
[16] = system: Vero E6; assay: as above; details: 72 h
[17] = system: Calu-3; assay: as above; details: 72 h
[18] = system: HepG2; assay: as above; details: 72 h
[19] = system: Caco-2; assay: relative viability EC50 (midpoint between 100% and the lowest measured viability); higher = less toxic; details: 72 h
[20] = system: U2OS; assay: as above; details: 72 h

OC(c1cc(C(F)(F)F)nc2c(C(F)(F)F)cccc12)C1CCCCN1 (centres undefined) [mefloquine]
Details	SARS-CoV-2 infection rate [%]	cell count [%]	cell viability [%]	morphology score	phospholipidosis EC50 [µM]
[1], 0.1 µM	107	–	–	–	–
[1], 0.3 µM	94	–	–	–	–
[1], 1 µM	89	–	–	–	–
[1], 3 µM	32	–	–	–	–
[2], 24 h	–	–	–	–	1.57
[2], 48 h	–	–	–	–	2.78
[2], 72 h	–	–	–	–	3.29
[6], 1 nM	–	–	108	–	–
[6], 10 nM	–	–	103	–	–
[6], 100 nM	–	–	102	–	–
[6], 1000 nM	–	–	105	–	–
[6], 10000 nM	–	–	69.3	–	–
[7], 1 nM	–	–	106	–	–
[7], 10 nM	–	–	99.6	–	–
[7], 100 nM	–	–	107	–	–
[7], 1000 nM	–	–	99.5	–	–
[7], 10000 nM	–	–	73	–	–
[8], 1 nM	–	–	101	–	–
[8], 10 nM	–	–	106	–	–
[8], 100 nM	–	–	102	–	–
[8], 1000 nM	–	–	103	–	–
[8], 10000 nM	–	–	78.7	–	–
[9], 1 nM	–	–	110	–	–
[9], 10 nM	–	–	90.2	–	–
[9], 100 nM	–	–	105	–	–
[9], 1000 nM	–	–	103	–	–
[9], 10000 nM	–	–	76.9	–	–
[10], 1 nM	–	–	98.1	–	–
[10], 10 nM	–	–	89.9	–	–
[10], 100 nM	–	–	98.9	–	–
[10], 1000 nM	–	–	89.7	–	–
[10], 10000 nM	–	–	10.8	–	–
[11], 0.1 µM	–	98	–	–	–
[11], 0.3 µM	–	98	–	–	–
[11], 1 µM	–	108	–	–	–
[11], 3 µM	–	122	–	–	–
[12], 0.1 µM	–	–	–	-0.29	–
[12], 0.3 µM	–	–	–	0.2	–
[12], 1 µM	–	–	–	0.27	–
[12], 3 µM	–	–	–	0.84	–

Details	drug sensitivity score	relative viability EC50 [µM]
[3]	–	> 10
[4]	–	> 10
[5]	–	2.21
[14]	1.1	–
[15]	1.1	–
[16]	0.5	–
[17]	0.6	–
[18]	6.7	–

drug-induced phospholipidosis [%], [13]
Details	0.3 µM	0.833333 µM	3.33333 µM	6.66667 µM	10 µM
24 h	2.22	17.4	75	83.8	88.4
48 h	3.66	13	67.8	86.7	102
72 h	5.04	11.3	58.8	87.9	97.7

CC(C)COc1ccc(CNC(=O)N(Cc2ccc(F)cc2)C2CCN(C)CC2)cc1 [pimavanserin]
Details	SARS-CoV-2 infection rate, [1] [%]	cell count, [11] [%]	cell viability, [6] [%]	cell viability, [7] [%]	cell viability, [8] [%]	cell viability, [9] [%]	cell viability, [10] [%]	morphology score, [12]
1 nM	–	–	105	99.4	101	100	102	–
10 nM	–	–	95.7	99.2	101	97	104	–
100 nM	–	–	105	92.2	108	95.1	104	–
0.3 µM	100	101	–	–	–	–	–	-0.07
1000 nM	–	–	110	99.2	99.4	95.2	103	–
10000 nM	–	–	85.7	92	98.4	86.2	86.2	–

Details	drug sensitivity score	relative viability EC50 [µM]
[3]	–	> 10
[4]	–	> 10
[5]	–	> 10
[14]	0.1	–
[15]	0	–
[16]	0	–
[17]	0.1	–
[18]	0.1	–
[19]	–	> 10
[20]	–	> 10

[13], 0.3 µM
Details	drug-induced phospholipidosis [%]
24 h	4.68
48 h	2.24
72 h	1.32

c1ccc2c(CCNc3ccc(Nc4ccncc4)cc3)c[nH]c2c1 [serdemetan]
Details	SARS-CoV-2 infection rate [%]	cell count [%]	cell viability [%]	morphology score	phospholipidosis EC50 [µM]
[1], 0.3 µM	106	–	–	–	–
[1], 3 µM	72	–	–	–	–
[1], 10 µM	22	–	–	–	–
[1], 30 µM	43	–	–	–	–
[2], 24 h	–	–	–	–	3.5
[2], 48 h	–	–	–	–	3.63
[6], 1 nM	–	–	94.1	–	–
[6], 10 nM	–	–	94.2	–	–
[6], 100 nM	–	–	99	–	–
[6], 1000 nM	–	–	92.1	–	–
[6], 10000 nM	–	–	82.8	–	–
[7], 1 nM	–	–	98.7	–	–
[7], 10 nM	–	–	97.5	–	–
[7], 100 nM	–	–	100	–	–
[7], 1000 nM	–	–	100	–	–
[7], 10000 nM	–	–	52.1	–	–
[8], 1 nM	–	–	93.1	–	–
[8], 10 nM	–	–	101	–	–
[8], 100 nM	–	–	97.4	–	–
[8], 1000 nM	–	–	93.5	–	–
[8], 10000 nM	–	–	87.9	–	–
[9], 1 nM	–	–	98.5	–	–
[9], 10 nM	–	–	92.3	–	–
[9], 100 nM	–	–	105	–	–
[9], 1000 nM	–	–	92.8	–	–
[9], 10000 nM	–	–	51.7	–	–
[10], 1 nM	–	–	94.8	–	–
[10], 10 nM	–	–	99.5	–	–
[10], 100 nM	–	–	98.6	–	–
[10], 1000 nM	–	–	85.7	–	–
[10], 10000 nM	–	–	45.6	–	–
[11], 0.3 µM	–	102	–	–	–
[11], 3 µM	–	106	–	–	–
[11], 10 µM	–	115	–	–	–
[11], 30 µM	–	82	–	–	–
[12], 0.3 µM	–	–	–	-0.18	–
[12], 3 µM	–	–	–	0.58	–
[12], 10 µM	–	–	–	0.82	–
[12], 30 µM	–	–	–	0.17	–

Details	drug sensitivity score	relative viability EC50 [µM]
[3]	–	> 10
[5]	–	1.51
[14]	0.8	–
[15]	2.5	–
[16]	0.1	–
[17]	3.7	–
[18]	5.1	–
[19]	–	> 10

drug-induced phospholipidosis [%], [13]
Details	0.3 µM	0.833333 µM	3.33333 µM	6.66667 µM	10 µM	30 µM
24 h	0.45	0.3	12.7	59.1	43.6	17.2
48 h	-0.34	-2.16	8.14	56.1	35.4	–
72 h	-1.75	-1.63	6.6	–	–	–

CN(C)CCOc1ccc(/C(=C(/CCCl)c2ccccc2)c2ccccc2)cc1 [toremifene]
Details	SARS-CoV-2 infection rate [%]	cell count [%]	cell viability [%]	morphology score	phospholipidosis EC50 [µM]
[1], 0.1 µM	105	–	–	–	–
[1], 0.3 µM	88	–	–	–	–
[1], 1 µM	89	–	–	–	–
[1], 3 µM	44	–	–	–	–
[2], 24 h	–	–	–	–	15
[2], 48 h	–	–	–	–	1.48
[2], 72 h	–	–	–	–	1.65
[6], 1 nM	–	–	100	–	–
[6], 10 nM	–	–	98.1	–	–
[6], 100 nM	–	–	105	–	–
[6], 1000 nM	–	–	92.3	–	–
[6], 10000 nM	–	–	39.8	–	–
[7], 1 nM	–	–	97.6	–	–
[7], 10 nM	–	–	94.9	–	–
[7], 100 nM	–	–	99.4	–	–
[7], 1000 nM	–	–	91.3	–	–
[7], 10000 nM	–	–	66.7	–	–
[8], 1 nM	–	–	98.4	–	–
[8], 10 nM	–	–	101	–	–
[8], 100 nM	–	–	90.4	–	–
[8], 1000 nM	–	–	95.3	–	–
[8], 10000 nM	–	–	53.6	–	–
[9], 1 nM	–	–	90.6	–	–
[9], 10 nM	–	–	106	–	–
[9], 100 nM	–	–	104	–	–
[9], 1000 nM	–	–	93.1	–	–
[9], 10000 nM	–	–	15.8	–	–
[10], 1 nM	–	–	105	–	–
[10], 10 nM	–	–	82.5	–	–
[10], 100 nM	–	–	104	–	–
[10], 1000 nM	–	–	103	–	–
[10], 10000 nM	–	–	29.9	–	–
[11], 0.1 µM	–	100	–	–	–
[11], 0.3 µM	–	107	–	–	–
[11], 1 µM	–	107	–	–	–
[11], 3 µM	–	127	–	–	–
[12], 0.1 µM	–	–	–	-0.1	–
[12], 0.3 µM	–	–	–	0.28	–
[12], 1 µM	–	–	–	0.36	–
[12], 3 µM	–	–	–	0.76	–

Details	drug sensitivity score	relative viability EC50 [µM]
[4]	–	2.5
[5]	–	3.4
[14]	4.6	–
[15]	2.8	–
[16]	3.2	–
[17]	5.7	–
[18]	3.6	–
[19]	–	2.13

drug-induced phospholipidosis [%], [13]
Details	0.3 µM	0.833333 µM	3.33333 µM	6.66667 µM	10 µM	30 µM
24 h	8.6	44.5	103	115	116	416
48 h	7.64	34.2	102	117	121	–
72 h	6.92	27.5	102	112	125	–
